Consider 13 compounds from patent publication US20130072506A1, “6,8-DISUBSTITUTED PURINE COMPOSITIONS” (priority 2011, published 2013).

pIC50: −log10 of the molar value.

In one data set the test system is excised wheat leaf tips. Put plainly: Senescence inhibition on winter wheat leaf segments (chlorophyll retention). The format is in vivo, Triticum aestivum cv. Hereward. The note with it: for Activity (%): at concentration with highest activity, activity of 10^−4 M kinetin set at 100%; for Concentration with highest activity: retention of chlorophyll in excised wheat leaf tips, 96 hours in the dark. The protocol: Senescence Inhibition by Novel Compounds Tested on Winter Wheat Leaf Segments. Seeds of winter wheat, Triticum aestivum cv. Hereward, were washed under running water for 24 hours and then sown on vermiculite soaked with Knop's solution. They were placed in the grown chamber at 25° C. with a 16/8 hours light period at […]·m^−2·s^−1. After 7 days, the first leaf was fully developed and the second leaf had started to grow. A tip section of the first leaf, approximately 35 mm long, was removed from 5 seedlings and trimmed slightly to a combined weight of 100 mg. The basal ends of the five leaf tips were placed in the wells of a microtiter polystyrene plate containing […] of a cytokinin solution each. The entire plate was inserted into a plastic box lined with paper tissues soaked in distilled water to prevent leaf sections from drying out. After 96 hours incubation in the dark at 25° C., the leaves were removed and chlorophyll extracted by heating at 80° C. for 10 min in 5 ml of 80% ethanol (v/v). The sample volume was then restored to 5 ml by the addition of 80% ethanol (v/v). The absorbance of the extract was recorded at 665 nm. In addition, chlorophyll extracts from fresh leaves and leaf tips incubated in deionized water were measured. The set up of the assay is shown on FIG. 1. From the obtained data, the concentration with highest activity was selected for each compound tested. Relative activity of the compound at this concentration was calculated (see Table 2 below). […] The values shown are means of five replicates and the whole experiment was repeated twice.
The compounds to be tested were dissolved in dimethylsulfoxide (DMSO) and the solution brought up to 10^−3 M with distilled water.

Data set [1] has as its system Human diploid fibroblast BJ. Put plainly: In vitro cytotoxic activity (metabolisation of MTT). The format is cell-based. The note with it: 72 hours, BJ passage 18-22. The protocol: In vitro Cytotoxic Activity (metabolisation of Mtt). MTT ([…]) assay is a standard colorimetric assay for evaluation of cytotoxicity. Mitochondrial dehydrogenase activity converts yellow MTT into violet formazan which is measured by means of spectrometry.
Human diploid fibroblast BJ (passage 18-22) were seeded into 96-well plate (5.000 cells per well). After 6 hours cultivation medium (DMEM with 5 g/l glucose, 2 mM glutamine, 100 U/ml penicillin, 100 mmg/ml streptomycin, 10% fetal calf serum and sodium bicarbonate) was replaced with the cultivation medium containing test compounds in concentration range of 0-200 μM. Highest concentration was adjusted if the solubility of the compound was limiting. Every concentration was tested in pentaplicate. MTT was added to the cells after 72 hours incubation (final concentration 0.5 mg/ml) and incubation continued for another 3 hours. MTT was solubilised by DMSO and absorbance at 570 nm was measured. Growth inhibition (GI) was estimated using the following equitation: GI=(mean A drug exposed wells−mean Ablank/mean Acontrol wells−mean Ablank)×100%. The GI20 value, the drug concentration causing 20% decrease in mitochondrial dehydrogenase activity, was calculated from the obtained dose response curves.

The next data set relates to melanoma cell line G-361. Kind of data set: In vitro cytotoxic activity (metabolisation of Calcein AM). The format is cell-based, human. The note with it: Homo sapiens, G-361 cells, 72 hours incubation, called GI50, read-out: Cell line tested/IC50 (μmol/L) G-361. The method, boiled down:
(§1)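 Cells were pre-incubated 24 hours at 2.500-30.000 cells per well, then exposed to six 3-fold dilutions, usually from 100 μM top, for 72 hours at 37° C, 5% CO2, in triplicate. Calcein AM was added at 1 μg/ml final and fluorescence read after 1 hour; GI50 is the concentration halving Calcein AM conversion.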

Data set [2] deals with T-lymphoblastic leukemia cell line CEM. Described as above. The format is cell-based, human. As to conditions: Homo sapiens, CCRF-CEM, CEM cells, 72 hours incubation, called GI50, read-out: Cell line tested/IC50 (μmol/L) CEM. The method, boiled down:
as §1

For data set [3], the system named is breast carcinoma cell line MCF-7. The description is as above. As to conditions: Homo sapiens, MCF7 cells, 72 hours incubation, called GI50, read-out: Cell line tested/IC50 (μmol/L) MCF7. The format is cell-based, human. The method in brief: as §1
Data set [4] has as its system osteosarcoma cell line HOS. Described as above. As to conditions: Homo sapiens, HOS cells, 72 hours incubation, called GI50, read-out: Cell line tested/IC50 (μmol/L) HOS. The format is cell-based, human. The method in brief: as §1
In data set [5] the test system is erytroid leukemia cell line K-562. Described as above. The class given is cell-based, human. As to conditions: Homo sapiens, K562, K-562 cells, 72 hours incubation, called GI50, read-out: Cell line tested/IC50 (μmol/L) K-562. The method, boiled down: as §1
The subject of data set [6] is normal diploid fibroblasts BJ. The data set is described as above. The format is cell-based, human. As to conditions: Homo sapiens, BJ cells, 72 hours incubation, called GI50, read-out: Cell line tested/IC50 (μmol/L) BJ. The method, boiled down:
as §1

The test system of data set [7] is cytokinin-dependent tobacco callus. Put plainly: Growth of cytokinin-dependent tobacco callus (plant cell division). The class given is cell-based, Nicotiana tabacum L. cv. Wisconsin 38. The note with it: for Activity (%): at concentration with highest activity, activity of kinetin set at 100%. Here is the method:
The effect on plant cell division. Cytokinin-dependent tobacco callus Nicotiana tabacum L. cv. Wisconsin 38 was maintained at 25° C. in darkness on modified MS medium, containing 4 μmol/l nicotinic acid, 2.4 μmol/l pyridoxine hydrochloride, 1.2 μmol/l thiamine, 26.6 μmol/l glycine, 1.37 μmol/l glutamine, 1.8 μmol/1 myo-inositol, 30 g/l of sucrose, 8 g/l of agar, 5.37 μmol/l NAA and 0.5 μmol/l BAP. Subcultivation was carried out every three weeks. Fourteen days before the bioassay, the callus tissue was transferred to the media without BAP. Biological activity was determined from the increase in fresh callus weight after four weeks of cultivation. Five replicates were prepared for each cytokinin concentration and the entire test was repeated twice. From the obtained data, the concentration with highest activity was selected for each compound tested. Relative activity at this concentration was calculated (see Table 4 below).
The cytokinins to be tested were dissolved in dimethylsulfoxide (DMSO) and the solution brought up to 10^−3M with distilled water.

The test system of data set [8] is Amaranthus caudatus cotyledon/hypocotyl explants. Put plainly: Amaranthus bioassay (betacyanin content). The format is in vivo, Amaranthus caudatus var. atropurpurea. The note with it: for Activity (%): at concentration with highest activity, activity of kinetin set at 100%; for Concentration with highest activity: betacyanin content, 48 hours in darkness. Here is the method:
Testing of Novel Compounds in Amaranthus bioassay. Standard Amaranthus bioassay was performed with several modifications. The seeds of Amaranthus caudatus var. atropurpurea were surface-sterilized in 10% N-chlorobenzene sulfonamide (w/v) for 10 min and washed 5 times in deionized water. They were placed in 14 cm Petri dishes containing paper tissues saturated with deionized water. After 72 hours of cultivation at 25° C. in darkness, the roots of the seedlings were cut off. The explants, consisting of two cotyledons and hypocotyls, were placed in 5 cm Petri dishes on two layers of filter paper soaked in 1 ml of incubation medium containing 10 μmol Na2HPO4—KH2PO4, pH 6.8, 5 μmol tyrosine and the cytokinin to be tested. There were 20 explants per dish. The procedure was carried out under a green safe light in a darkroom. After a 48 hours of incubation at 25° C. in darkness, betacyanin was extracted by freezing the explants in 4 ml 3.33 μM acetic acid. The concentration of betacyanin was determined by comparing the absorbance at 537 nm and 620 nm as follows: DA=A537nm−A620nm. From the obtained data, the concentration with highest activity was selected for each compound tested. Relative activity of the compound at this concentration was calculated (see Table 3 below). […] The values shown in Table 3 are means of five replicates and the entire test was repeated twice.
The cytokinins to be tested were dissolved in dimethylsulfoxide (DMSO) and the solution brought up to 10^−3 M with distilled water.

As to `Brc1nc2ncnc(NCc3ccccc3)c2[nH]1` [Compound 2, 6-Benzylamino-8-bromopurine], the “Activity (%)” value in the data set on excised wheat leaf tips is on record as 144.76 (±6) %; in data set [7], 174.83%. Moreover, the “Concentration with highest activity” value in the data set on excised wheat leaf tips is listed as 10^−4 mol/l. Moreover, the GI20 in data set [1] was over 50 µM. The pIC50 (in the data set on melanoma cell line G-361; in [2]; in data set [3]; in data set [4]; in data set [5]; in [6]) was under 4.30 throughout.

As for `Clc1nc2ncnc(NCc3ccccc3)c2[nH]1` [Compound 30, 6-Benzylamino-8-chloropurine], in the data set with excised wheat leaf tips, the “Activity (%)” value is on record as 124.81 (±1) % and the “Concentration with highest activity” value was 10^−4 mol/l. This compound gave a GI20 in [1] of over 100 µM. In addition, the “Activity (%)” value in data set [7] was found to be 157.51%.

On to `CN(C)c1nc2ncnc(NCc3ccccc3)c2[nH]1` [Compound 62, 6-Benzylamino-8-dimethylaminopurine], for which the melting point (as a rule, the temperature of the solid-liquid transition) was 217 to 219 °C. Moreover, in the data set on excised wheat leaf tips, the “Activity (%)” value is given as 106.13 (±1) % and the “Concentration with highest activity” value is listed as 10^−4 mol/l. Besides, in [7], the “Activity (%)” value was found to be 165.64%.

In turn, `Nc1nc2ncnc(NCc3ccccc3)c2[nH]1` [Compound 83, 8-Amino-6-benzylaminopurine] yielded a melting point of 223 to 226 °C. In [1], this compound returned a GI20 of over 100 µM. For the same compound, in the data set on melanoma cell line G-361, the pIC50 was under 4.30. Also, the pIC50 in data set [2] is under 4.30. In [3], the pIC50 is under 4.30. For the same compound, the pIC50 in [4] was under 4.30. In data set [5], the pIC50 was under 4.30. Besides, the pIC50 in data set [6] was under 4.30. Moreover, the “Activity (%)” value in [7] was determined as 197.08%.

Consider `CC(C)=CCNc1ncnc2nc(N)[nH]c12` [Compound 87, 6-(3-methylbut-2-en-1-ylamino)-8-aminopurine], for which the “Activity (%)” value in data set [8] is 171.36%; in data set [7], 150.44%. For the same compound, the “Concentration with highest activity” value in data set [8] is 10^−4 mol/l. In [1], this compound yielded a GI20 of over 100 µM. In addition, the pIC50 (in the data set with melanoma cell line G-361; in [2]; in data set [3]; in data set [4]; in [5]; in [6]) was under 4.30 throughout.

In the case of `COc1nc2ncnc(NCc3ccco3)c2[nH]1` [Compound 120, 6-Furfurylamino-8-methoxypurine], the melting point was 196 to 198 °C. Besides, in the data set on melanoma cell line G-361, the pIC50 is under 4.30. In addition, the pIC50 in [2] was under 4.30. Moreover, the pIC50 in data set [3] is under 4.30. Moreover, the pIC50 in [4] is under 4.30. For the same compound, in data set [5], the pIC50 was under 4.30. The pIC50 in data set [6] was under 4.30.

Turning to `COc1nc2ncnc(NCc3ccccc3)c2[nH]1` [Compound 121, 6-Benzylamino-8-methoxypurine], the “Activity (%)” value is given as 121.15% in data set [8] and 129.11% in data set [7]. The “Concentration with highest activity” value in [8] was 10^−4 mol/l. Moreover, the pIC50 (in the data set on melanoma cell line G-361; in data set [2]; in data set [3]; in data set [4]; in data set [5]; in data set [6]) was under 4.30 throughout.

For `CSc1nc2ncnc(NCc3ccccc3)c2[nH]1` [Compound 148, 6-Benzylamino-8-methylsulphanylpurine], the melting point was 234 to 237 °C. Moreover, in data set [7], the “Activity (%)” value is recorded as 109.36%.

Take `Oc1nc2ncnc(NCc3ccccc3)c2[nH]1` [Compound 167, 6-Benzylamino-8-hydroxypurine]: the melting point lay in the range of 243 to 247 °C. The pIC50 in the data set on melanoma cell line G-361 was under 4.30. Further, the pIC50 in data set [2] is under 4.30. In data set [3], the pIC50 was under 4.30. Besides, the pIC50 in data set [4] is under 4.30. For the same compound, in data set [5], the pIC50 is under 4.30. Besides, the pIC50 in data set [6] is under 4.30.

`NCc1nc2ncnc(NCc3ccccc3)c2[nH]1` [Compound 181, 8-Aminomethyl-6-benzylaminopurine] came in with a melting point of 187 to 189 °C. Moreover, the pIC50 in the data set on melanoma cell line G-361 was under 4.30. In data set [2], the pIC50 was under 4.30. Also, in [3], the pIC50 was under 4.30. The pIC50 in data set [4] was under 4.30. Besides, in data set [5], the pIC50 is under 4.30. For the same compound, the pIC50 in data set [6] was under 4.30.

Turning to `COC(=O)c1nc2ncnc(NCc3ccccc3)c2[nH]1` [Compound 188], the “Activity (%)” value was 122.51% in data set [8] and 148.91% in data set [7]. The “Concentration with highest activity” value in data set [8] is 10^−4 mol/l; in data set [7] (increase in fresh callus weight after four weeks), 10^−6 mol/l.

As for `NCCCNc1nc2ncnc(NCc3ccccc3)c2[nH]1` [Compound 209, 8-(3-Aminopropylamino)-6-benzylaminopurine], the melting point lay in the range of 170 to 173 °C. Besides, the GI20 in data set [1] was over 100 µM. In the data set with melanoma cell line G-361, the pIC50 was under 4.30. In addition, the pIC50 in data set [2] is under 4.30. Moreover, in data set [3], the pIC50 is under 4.30. The pIC50 in data set [4] is under 4.30. Also, in data set [5], the pIC50 was under 4.30. In data set [6], the pIC50 was under 4.30. Moreover, in data set [7], the “Activity (%)” value stood at 150.01%.

Compound `C/C(=C\CNc1ncnc2nc(N(C)C)[nH]c12)CO` [Example 7 (23), (E)-8-Dimethylamino-6-(4-hydroxy-3-methylbut-2-en-1-ylamino)purine] displayed a melting point of 245 to 249 °C.
